# Measured values published in US8299088B2, “Compositions and methods for treating cancer” (priority 2003, dated 2012).
# Where two headings read alike, the source gives them in different places.
# Columns and labels:
# H460 cells [1] = assay: Intracellular activation of hypoxia activated prodrugs (drug metabolism in medium of cells, LC-MS/UV 370 nm); conditions: for Example 12 compound UV peak area (370 nm): drug only (no cells), ~30 μM, 3 hours 37° C
# H460 cells [2] = system: H460 cells
# H460 cells [3] = assay: Clonogenic toxicity assay; type: cell-based, human; conditions: 2 hr compound exposure; for IC90: Homo sapiens, NCI-H460, normoxic (air) and anoxic, no significant difference
# Description: The clonogenic assay measures the reproductive ability of a surviving cell by specifically determining if a cell can grow to form a colony of greater than 50 cells. Briefly, cells are treated with a drug for an acute exposure and then the drug is removed. Cells are trypinized to form single cell suspensions and known numbers of cells are plated and incubated until colonies form. Colonies are counted and the cell survival is calculated based on number of colonies formed in the treated groups compared to number of colonies formed in the untreated controls. […] The terms aerobic and normoxic are used interchangeably.
# Exponentially growing human H460 cells (obtained from ATCC) were seeded into 60 mm notched glass plates between 2.5 and 5×10^5 cells per plate and grown in RPMI medium supplemented with 10% fetal bovine serum for 2 days prior to initiating treatment. On the day of the experiment drug stocks of known concentrations were prepared in complete medium and 2 ml added to each plate. Glass plates were sealed into airtight aluminum vessels equipped with a valve to control gas flow. To achieve complete equilibration between the gas phase and the liquid phase a series of gas exchanges were performed on each vessel while shaking. Vessels were evacuated and gassed with either a certified anoxic gas mixture (95% nitrogen and 5% carbon dioxide) or with aerobic gas mixture (95% air and 5% carbon dioxide). Specifically, each vessel was evacuated to minus 26 inches of mercury and held for 15 seconds before gassing at 20 psi and again holding for 15 seconds. After a series of five evacuations and gassings the vessels were held an additional 5 minutes before a final evacuation and refilling of each vessel with the desired gas mixture at 0.5 psi above atmospheric pressure. Cells were incubated for 2 hours at 37° C. […] The exact concentration of each stock was determined by counting with a Coulter Z2 particle counter. […] Colonies of greater than 50 cells were counted and the surviving fraction determined.
smiles,measurement,setting,value
"CC[C@@]1(O)C(=O)OCc2c1cc1n(c2=O)Cc2cc3cc(O)ccc3nc2-1 [10-OH Camptothecin, 10-Hydroxycamptothecin, reference compound]",Example 12 compound UV peak area (370 nm),H460 cells [1]; aerobic,0
same,Example 12 compound UV peak area (370 nm),H460 cells [1]; anoxic,0
CCC1(O)C(=O)OCc2c1cc1n(c2=O)Cc2cc3cc(OCc4cnc([N+](=O)[O-])n4C)ccc3cc2-1 (stereo not drawn) [Example 12],selectivity of release mechanism (anoxic versus hypoxic),H460 cells [1]; in words,highly selective
same,degree of release (conversion to 10 hydroxy-camptothecin),"H460 cells [1]; trial 4: anoxic, with H460 cells",over half
same,release of 10 hydroxycamptothecin,H460 cells [2],no detectable release
same,10-Hydroxy Campothecin UV peak area (370 nm),"H460 cells [2]; 3 h, 30 uM",~0
COc1cccc2c1C(=O)c1c(O)c3c(c(O)c1C2=O)C[C@@](O)(C(C)=O)C[C@@H]3O[C@H]1C[C@H](N)[C@H](O)[C@H](C)O1 [daunorubicin],toxicity difference between normoxic (air) and anoxic conditions,H460 cells [3],no significant toxicity difference
same,IC90,H460 cells [3]; read-out: IC 90 (90% inhibition of colony formation),500 nM
same,IC90,H460 cells [3]; read-out: IC 90 data ranges over multiple experiments,200 to 1000 nM
